Here are results for eight compounds from PubChem BioAssay (NCI).

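Cultured in 96-well plates, cells were exposed to test compound for 48 hours across five concentrations. TGI is the concentration that stops growth completely.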 Where a SMILES comes first, the peptide text is derived from it. The star is where a group is joined. Boc = CC(C)(C)OC(=O)*; tBu = CC(C)(C)*

Among the test systems are TK-10 renal; M14 melanoma; HOP-62 NSCLC; CAKI-1 renal; RPMI-8226 leukemia; UACC-257 melanoma; MOLT-4 leukemia; SW-620 colon; T-47D breast; SK-MEL-2 melanoma; HOP-92 NSCLC; IGROV1 ovarian; SR leukemia; HCT-116 colon; OVCAR-4 ovarian; RXF 393 renal; SK-MEL-5 melanoma; HL-60(TB) leukemia; SNB-19 CNS; SK-MEL-28 melanoma.
Assay in all cases: NCI-60 cell line screen, 48 h

For `COC(=O)[C@]1(C)[C@H]2C[C@H]3O[C@H]4[C@H](O)[C@@H](O)OC(CC(O)C(C5=CC(=O)OC5)C(C5=CC(=O)OC5)C(O)CC56CCCCC7[C@@H](C)[C@H](C[C@H]8[C@](C)(C(=O)OC)[C@H](O)CC[C@]78C)O[C@H]([C@@H](O)[C@H](O)O5)[C@H]6O)(CCCCC([C@@H]3C)[C@]2(C)CC[C@@H]1O)[C@H]4O` (stereo not given in full), the TGI in the assay on TK-10 renal came out at 0.234 µM; in the assay with M14 melanoma it was 1.16 µM; with HOP-62 NSCLC, 0.64 µM; with CAKI-1 renal it was 0.849 µM; in the assay with RPMI-8226 leukemia, 0.539 µM; in the assay with UACC-257 melanoma, 1.01 µM. Also, the TGI came out at 0.0883 µM in the assay with MOLT-4 leukemia; 1.78 µM in the assay on SW-620 colon; 6.62 µM in the assay on T-47D breast; 0.643 µM in the assay with SK-MEL-2 melanoma; 3.92 µM with HOP-92 NSCLC; 1.2 µM with IGROV1 ovarian. Further, the TGI came out at 0.253 µM in the assay with SR leukemia; 0.53 µM in the assay on HCT-116 colon; 0.373 µM in the assay with OVCAR-4 ovarian; 0.264 µM in the assay on RXF 393 renal; 0.129 µM in the assay with SK-MEL-5 melanoma; 0.348 µM in the assay on HL-60(TB) leukemia. Further, the TGI in the assay on SNB-19 CNS came out at 1.12 µM; in the assay with SK-MEL-28 melanoma, 10.4 µM.
With `O=C(c1ccccc1)c1ccc2nc3n(c2c1)C(c1c(Cl)cccc1Cl)SC3` (stereo not given), the TGI in the assay on TK-10 renal is over 100 µM; in the assay with M14 melanoma, 16.9 µM; in the assay on HOP-62 NSCLC it was over 44.4 µM; with CAKI-1 renal, over 51.7 µM; with RPMI-8226 leukemia it was over 74.7 µM; in the assay on UACC-257 melanoma, over 100 µM. Further, the TGI is 19.7 µM in the assay on MOLT-4 leukemia; over 100 µM in the assay with SW-620 colon; 24.5 µM with T-47D breast; 78.5 µM with SK-MEL-2 melanoma; over 100 µM in the assay with HOP-92 NSCLC; over 100 µM with IGROV1 ovarian. Besides, the TGI was 8.42 µM in the assay with SR leukemia; 12.8 µM in the assay on HCT-116 colon; over 80.3 µM in the assay with OVCAR-4 ovarian; over 100 µM in the assay with RXF 393 renal; 14.6 µM with SK-MEL-5 melanoma; over 53.5 µM in the assay with HL-60(TB) leukemia. Further, the TGI was over 64.1 µM in the assay with SNB-19 CNS and over 100 µM with SK-MEL-28 melanoma.
Turning to `Cc1cc(NS(=O)(=O)c2ccc(NC(=O)c3ccc4nc5ccccc5c(Nc5ccc(S(=O)(=O)Nc6cc(C)on6)cc5)c4c3)cc2)no1`, the TGI with TK-10 renal, in the assay with M14 melanoma, with HOP-62 NSCLC, in the assay with CAKI-1 renal, with RPMI-8226 leukemia and with UACC-257 melanoma was over 50 µM throughout. The TGI in the assay on MOLT-4 leukemia, in the assay with SW-620 colon, in the assay with T-47D breast, in the assay with SK-MEL-2 melanoma, in the assay with HOP-92 NSCLC and with IGROV1 ovarian was over 50 µM each time. Also, the TGI in the assay with SR leukemia, in the assay on HCT-116 colon, in the assay with OVCAR-4 ovarian, in the assay with RXF 393 renal, in the assay with SK-MEL-5 melanoma and with HL-60(TB) leukemia was over 50 µM throughout. Besides, the TGI in the assay with SNB-19 CNS and in the assay with SK-MEL-28 melanoma was over 50 µM throughout.
In the case of `CCN(CCCl)c1cc(CN(C)C)cc(NC(=O)c2cc(C(=O)Nc3cc(CN(C)C)cc(N(CC)CCCl)c3)n(C)n2)c1`, the TGI in the assay on TK-10 renal is 6.17 µM; with M14 melanoma it was 2.01 µM; with HOP-62 NSCLC, 1.21 µM; in the assay with CAKI-1 renal it was 2.72 µM; in the assay on RPMI-8226 leukemia, over 100 µM; in the assay with UACC-257 melanoma, 2.89 µM. Further, the TGI with MOLT-4 leukemia amounted to 0.164 µM; with SW-620 colon it was 0.304 µM; with T-47D breast it was 6.43 µM; in the assay on SK-MEL-2 melanoma it was 3.3 µM; in the assay with HOP-92 NSCLC, 3.38 µM; in the assay on IGROV1 ovarian, 0.38 µM. Moreover, the TGI in the assay with SR leukemia was over 100 µM; in the assay on HCT-116 colon, 1.3 µM; in the assay on OVCAR-4 ovarian it was 2.8 µM; in the assay on RXF 393 renal it was 2.08 µM; with SK-MEL-5 melanoma, 2.28 µM; with HL-60(TB) leukemia, 4.04 µM. In addition, the TGI in the assay with SNB-19 CNS came out at 1.24 µM; with SK-MEL-28 melanoma it was 2.81 µM.
`O/N=C1\CSc2ccccc2C1`: the TGI in the assay on TK-10 renal, in the assay with M14 melanoma, with HOP-62 NSCLC, in the assay on CAKI-1 renal, in the assay with RPMI-8226 leukemia and in the assay with UACC-257 melanoma was over 100 µM in each case. Further, the TGI with MOLT-4 leukemia, with SW-620 colon, with T-47D breast, with SK-MEL-2 melanoma, with HOP-92 NSCLC and in the assay with IGROV1 ovarian was over 100 µM throughout. Besides, the TGI in the assay on SR leukemia, with HCT-116 colon, with OVCAR-4 ovarian, in the assay on RXF 393 renal, in the assay with SK-MEL-5 melanoma and with HL-60(TB) leukemia was over 100 µM throughout. Further, the TGI in the assay on SNB-19 CNS and in the assay on SK-MEL-28 melanoma was over 100 µM in each case.
Turning to `CC(OC(C)(C)C)C(NC(=O)C(N)CCCCNC(=O)OC(C)(C)C)C(=O)NC(Cc1ccccc1)C(=O)O` (stereo not given) (H-Lys(Boc)-Thr(tBu)-Phe-OH; configuration not given here), the TGI with TK-10 renal, in the assay on M14 melanoma, in the assay on HOP-62 NSCLC, with CAKI-1 renal, in the assay on RPMI-8226 leukemia and in the assay with UACC-257 melanoma was over 100 µM throughout. The TGI in the assay on MOLT-4 leukemia, with SW-620 colon, in the assay with T-47D breast, with SK-MEL-2 melanoma, in the assay with HOP-92 NSCLC and with IGROV1 ovarian was over 100 µM throughout. In addition, the TGI with SR leukemia, in the assay with HCT-116 colon, in the assay on OVCAR-4 ovarian, with RXF 393 renal, in the assay with SK-MEL-5 melanoma and in the assay with HL-60(TB) leukemia was over 100 µM throughout. Moreover, the TGI in the assay with SNB-19 CNS and with SK-MEL-28 melanoma was over 100 µM in each case.
Consider `CC(=O)O[C@H]1C[C@H]2[C@@H]([C@H](OC(C)=O)C[C@@H]3CC4(CC[C@@]32C)OOC2(CCCCC2)OO4)[C@@H]2CC[C@H]([C@H](C)CCC(=O)O)[C@@]12C`, for which the TGI in the assay on TK-10 renal was found to be 27 µM; with M14 melanoma, 26.9 µM; in the assay with HOP-62 NSCLC, 5.93 µM; in the assay with CAKI-1 renal it was 25.3 µM; with RPMI-8226 leukemia it was 20.7 µM; in the assay on UACC-257 melanoma, 25 µM. Also, the TGI was found to be 51.6 µM in the assay with MOLT-4 leukemia; 30 µM in the assay with SW-620 colon; 45.7 µM in the assay with T-47D breast; 26.5 µM in the assay with SK-MEL-2 melanoma; 7.1 µM with HOP-92 NSCLC; 3.9 µM with IGROV1 ovarian. Moreover, the TGI is 8.3 µM in the assay with SR leukemia; 19.2 µM with HCT-116 colon; 9.38 µM in the assay on OVCAR-4 ovarian; 31.3 µM in the assay with RXF 393 renal; 22.6 µM in the assay with SK-MEL-5 melanoma; 15.1 µM in the assay with HL-60(TB) leukemia. Further, the results for the TGI in the assay with SNB-19 CNS and in the assay on SK-MEL-28 melanoma were 25.4 µM and 24 µM, respectively.
For the compound `N#Cc1c(N)nc2n[nH]c(N)c2c1-c1ccccc1`, the TGI is over 27.1 µM in the assay with TK-10 renal; 37.5 µM with M14 melanoma; 63.9 µM with HOP-62 NSCLC; 19.4 µM with CAKI-1 renal; over 53.8 µM in the assay with RPMI-8226 leukemia; over 83.6 µM in the assay on UACC-257 melanoma. For the same compound, the TGI was 32.4 µM with MOLT-4 leukemia; over 100 µM in the assay with SW-620 colon; 3.9 µM in the assay with T-47D breast; 12.8 µM with SK-MEL-2 melanoma; 8.01 µM with HOP-92 NSCLC; 13.4 µM in the assay on IGROV1 ovarian. Besides, the TGI is over 60.1 µM with SR leukemia; 46.1 µM in the assay on HCT-116 colon; over 100 µM in the assay on OVCAR-4 ovarian; 13.2 µM in the assay with RXF 393 renal; 26.7 µM in the assay with SK-MEL-5 melanoma; 71.1 µM in the assay on HL-60(TB) leukemia. The TGI in the assay with SNB-19 CNS was over 58.8 µM; with SK-MEL-28 melanoma it was 77.2 µM.
